{"source": "patent US20220409617A1", "about": "“Drug Formulations and Methods of Treatment for Metabolic Disorders” (The Regents of the University of California, priority 2019, published 2022)", "key": {"[1]": {"test": "Plasma pharmacokinetics in mice", "format": "in vivo", "conditions": "mouse, po, single dose 120 mg/kg by gavage", "experimental": "Plasma pharmacokinetic analysis of sphingolipid-like compound 893 was performed by Pharmaron Corporation (Beijing, China). C16:0 ceramide levels were quantified in cells using the method described in (T. Kasumov, et al., Anal. Biochem. 401: 154-161, 2010, the disclosure of which is incorporated herein by reference) with minor modifications. Cultured cells were washed twice in PBS and scraped into 250 μL of HPLC grade water and flash frozen until time of analysis. On the day of analysis, samples were thawed, and an aliquot used for protein quantification. For C16:0 ceramide levels in mouse liver, 25 mg of tissue was homogenized in 1 ml of ice-cold PBS using a mechanical probe homogenizer (VWR, Radnor, Pa.), protein levels quantified, and 50 μl of the homogenate diluted with 150 μl HPLC-grade water for C16:0 ceramide analysis. […] Samples were analyzed by ultra-performance liquid chromatography tandem mass spectrometry (UPLC-MS/MS) using a Waters Micromass Quattro Premier XE equipped with a Waters ACQUITY BEH C4 column (Waters Corp.). […] Standard curves prepared from C16:0 ceramide (#860516, Avanti Polar Lipids, Alabaster, Ala.) dissolved in ethanol were used for quantitation and were linear from 4.1 nM-1,000 nM, with an R^2 of 0.98 or greater."}, "diet-induced obesity": {"test_system": "diet-induced obesity", "test": "Weight loss intervention study in HFD-fed mice", "format": "in vivo", "experimental": "Given its ability to correct HFD-induced mitochondrial fragmentation in vivo, sphingolipid-like compound 893 was evaluated as an interventional therapy for diet-induced obesity. Six-week old male, C57BL/6J mice were fed the HFD for 45 days; an age-matched cohort of control mice was maintained on the SD throughout the study. After 45 days, the average body weight of HFD-fed mice was approximately 130% that of chow-fed mice (FIGS. 15 to 17). Using quantitative nuclear magnetic resonance imaging, fat mass represented 21% of the body weight of mice that had consumed the HFD for 45 days and 12% of body weight in controls fed the standard diet; changes in lean body mass were of lesser magnitude (FIG. 17). At this point, HFD-fed mice were randomly assigned to receive vehicle (water), 60 mg/kg, or 120 mg/kg sphingolipid-like compound 893 by gavage; SD mice were treated with vehicle. Based on the increased activity of mice during the dark cycle (ZT12-ZT24) and the plasma pharmacokinetics of orally administered sphingolipid-like compound 893 (see FIG. 12), mice were treated at ZT8.5 on Mondays, Wednesdays, and Fridays. […] In the group receiving 120 mg/kg sphingolipid-like compound 893, the rate of weight loss slowed after 10 days. […] Despite continued treatment with the high dose of sphingolipid-like compound 893, weight loss plateaued once body weight matched that of SD controls (FIGS. 16 and 18). […] As in a prior report where mice were dosed 5-7 days a week for 11 weeks (S. M. Kim, et al., 2016, cited supra), sphingolipid-like compound 893 was well-tolerated, and the behavior of sphingolipid-like compound 893-treated mice was overtly normal throughout the study.\nAll animal experiments were performed in accordance with the Institutional Animal Care and Use Committee of University of California, Irvine. Male mice were used in all experiments. C57BL/6J mice (stock no 000664) and ob/ob mice (stock no 000632) were purchased from the Jackson Laboratory and were acclimated for 7 days prior to beginning experiments. Mice were housed under a 12:12 h light-dark cycle at 20-22° C. in groups of 4-5. Cages contained ⅛″ corncob bedding (7092A, Envigo, Huntingdon, UK) enriched with ˜6 g of cotton fiber nestlets (Ancare Corp., Bellmore, N.Y.). Access to food and water was ad libitum unless otherwise specified. For HFD studies, 8 week old C57BL/6J males were randomly assigned to either a 45% kcal from fat diet (HFD; D12451, Research Diets Inc., New Brunswick, N.J.) or 10% kcal from fat diet designed to match D12451 for other components (SD; D12450B, Research Diets Inc). Mice were maintained on these diets for up to 22 weeks as indicated. Ob/ob mice were fed the vivarium stock diet which contained 16% kcal from fat (2020×, Envigo). Polypropylene feeding tubes (20 g×38 mm; Instech Laboratories Inc., Plymouth, Pa.) were utilized for gavage and dipped into a 1 g/ml sucrose solution immediately prior to treatment to induce salivation.\nHFD-fed mice were randomly assigned to experimental groups receiving either vehicle (water) or sphingolipid-like compound 893 at 60 mg/kg or 120 mg/kg by oral gavage on Mondays, Wednesdays, and Fridays. Mice were maintained on the HFD throughout the study. The SD group was treated with vehicle on the same schedule. Group size was initially n=10; one animal from the 60 mg/kg group that was euthanized due to gavage error was excluded from the analysis making this group n=9. All treatments and measurements were performed between ZT8 and ZT10 unless otherwise noted. Body weight and food consumption were monitored Monday-Friday. Body composition was determined weekly in live animals using an EchoMRI™ Body Composition Analyzer (EchoMRI™ Corp., Singapore). Mice were euthanized and tissues collected 4 h after treatment. Where indicated, mice were fasted for 6 h."}}, "data": [{"smiles": "CCCCCCCCc1ccc([C@H]2CCN[C@@H]2CO)cc1.Cl", "note": "[compound 893]", "values": [{"measurement": "Tmax", "setting": "[1]", "result": 4, "unit": "h"}, {"measurement": "half-life", "setting": "[1]", "result": 10.6, "unit": "h"}, {"measurement": "Fat mass gain", "setting": "diet-induced obesity; HFD-fed mice, 60 mg/kg", "result": "gained fat mass at a similar rate to mice fed a standard diet"}, {"measurement": "Body weight versus chow-fed controls", "setting": "diet-induced obesity; HFD-fed mice, 60 mg/kg by gavage Mon/Wed/Fri", "result": "no longer gained weight, but did not match chow-fed controls"}, {"measurement": "Body weight change during treatment", "setting": "diet-induced obesity; HFD-fed mice, 60 mg/kg or 120 mg/kg by gavage Mon/Wed/Fri", "result": "dose-dependent weight loss"}, {"measurement": "Body weight versus chow-fed controls", "setting": "diet-induced obesity; HFD-fed mice, 120 mg/kg by gavage Mon/Wed/Fri, after 2 weeks (6 doses)", "result": "no longer statistically different from that of mice continuously fed a standard chow diet"}, {"measurement": "Tolerability", "setting": "diet-induced obesity; HFD-fed mice, 60 or 120 mg/kg Mon/Wed/Fri", "result": "well-tolerated"}, {"measurement": "Body composition underlying weight loss (fat mass, lean mass)", "setting": "diet-induced obesity; HFD-fed mice, 60 or 120 mg/kg, EchoMRI", "result": "a decline in fat mass with little change in lean mass"}, {"measurement": "Reduction of body weight", "setting": "diet-induced obesity; HFD-fed wild type mice, six doses of 120 mg/kg over 2 weeks", "result": 10, "unit": "%"}]}]}
